Laboratory results taken from patent US12234507B2, “Compositions and methods for targeted masking of autofluorescence” (10x Genomics, Inc., priority 2022, dated 2025).

Key:
[1] = tested on: FFPE human tonsil tissues; assay: Autofluorescence masking over multiple cycles in FFPE human tonsil tissue
Procedure: Formalin-fixed paraffin embedded (FFPE) human tonsil and liver tissues were obtained for this example. The samples were sectioned to 5 μm thickness and transferred to Superfrost® Plus slides. The samples were treated multiple times with Histo-Clear® and citrate buffer to remove the embedded paraffin and incubated overnight with nucleic acid probes targeting epithelial genes. The next day, the samples were washed with wash buffers to remove excess or unbound probes. The probes were then ligated in the presence of ligase, RNAase inhibitor and ligation buffer for 2 hours. Subsequently, the ligation products were amplified overnight using polymerases and amplification buffers. The samples were then stained using fluorescently labelled probes. Prior to staining, the samples with treated with DTT (1 mM) for 10 minutes and quenchers with different concentrations of the compound 1A (0.1 mM, 0.5 mM, and 0.8 mM). Images of control samples without compound 1A treatment were obtained for comparison. Samples were imaged in two field of views (FOVs) to control for photo bleaching. Once imaged, the fluorescently labelled probes were stripped using a denaturing agent and contacted with additional detectable probes before the next imaging round. In this manner, multiple rounds of stripping, re-probing, and imaging of signals associated with the fluorescently labelled probes, were performed without any additional quenching steps.

[2] = tested on: fresh frozen (FrF) mouse brain tissues (dentate gyrus, cortex); assay: Targeted masking of autofluorescence, in situ imaging of fresh frozen mouse brain tissue sections
Procedure: (§1) Formalin-fixed paraffin embedded (FFPE) human brain tissues and fresh frozen (FrF) mouse brain tissues were obtained for this example. The samples were sectioned to 10 μm thickness and transferred to Superfrost® Plus slides. The FFPE human brain tissues were treated multiple times with Histo-Clear® and citrate buffer to remove the embedded paraffin. The FrF mouse brain samples were fixed using 3.7% formaldehyde for 5 minutes. The slides were then incubated with nucleic acid probes targeting genes of interest. The nucleic acid probes were allowed to hybridize overnight in hybridization buffer at 37° C. The next day, the samples were washed using wash buffers to remove excess or unbound probes. The probes were then ligated in the presence of ligase, RNAase inhibitor and ligation buffer for 2 hours. Subsequently, the ligation products were amplified overnight using polymerases and amplification buffers. The samples were then stained using fluorescently labelled probes. Finally, the quenching agent compound 1A was dissolved in DMF (at 18 mM), diluted with 70% ethanol to provide solutions of compound 1A at concentrations of 3.6 mM, 1.8 mM, and 0.9 mM. These solutions were applied to the samples prior to imaging. Once imaged, the fluorescently labelled probes were stripped using a denaturing agent and contacted with additional detectable probes before the next imaging round. In this manner, multiple rounds of stripping, re-probing, and imaging of signals associated with the fluorescently labelled probes, were performed without any additional quenching steps.
(§2) To improve the binding of compound 1A to tissue moieties responsible for autofluorescence, the FrF mouse brain tissues were treated with dithiothreitol (DTT, 50 mM) and 2% TEA for 10 minutes before quenching with compound 1A. DTT reduces disulfide bridges in the tissues thereby increasing the thiol content for improved binding of compound 1A. Alternatively, the tissues were treated with a combination of 2,5-dioxopyrrolidin-1-yl 3-oxo-1-(pyridin-2-yldisulfaneyl)-7,10,13,16-tetraoxa-4-azanonadecan-19-oate (PEG4-SPDP), a derivative of succinimidyl 3-(2-pyridyldithio) propionate (SPDP) comprising an internal tetraoligoethylene linker, and DTT, to convert amines to thiols and reduce any disulfide bridges to increase thiol content. For the reduction only treatment, the tissues were treated with DTT (50 mM for 10 minutes). […] FIGS. 3A and 3C depict the fluorescence for the dentate gyrus and cortex portions prior to quenching, in which punctuate fluorescence signals were associated with rolling circle amplification products, and amorphous background fluorescence was detected.

FFPE human brain tissues [3] = assay: Masking autofluorescence of FFPE human brain tissue with quencher analogues; details: for background signal compared to unquenched tissues: quencher 1 mM 30 min, 50 mM DTT, all four channels 488, 532, 590, 647 nm (FIGS. 7A-7D); for detected object local mean signal-to-noise ratio: quencher 1 mM, 590 nm and 647 nm (FIGS. 8B, 8C)
Procedure: Formalin-fixed paraffin embedded (FFPE) human brain tissues were treated using the protocol described in Example 1 and further treated using 50 mM DTT for 30 minutes. Next, the tissues were incubated with the quenchers (1 mM) for 30 minutes prior to staining. Staining was performed using nucleic acid probes targeting an anchor sequence which is present within all of the RCPs and targeting epithelial genes-rp1p0, malat1, and actb. The tissues were stained with the quencher compounds 1A, 2A, 1B, 3B, a combination of quenchers 1A and 3B, or a commercial quencher (Table 1, for comparison).

FFPE human brain tissues [4] = assay: Targeted masking of autofluorescence, in situ imaging of FFPE human brain tissue
Procedure: as §1
as §2, with “minutes). For the conversion of amines to thiols and subsequent reduction, the tissues were treated first with PEG4-SPDP (10 mM) for 10 minutes, followed by treatment with DTT (50 mM) and compound 1A (0.9 mM). PEG4-SPDP is a multifunctional crosslinker for protein conjugation via amine-to-amine or amine-to-sulfhydryl crosslinks that contain a 4-unit polyethylene glycol (PEG) group and a reducible (cleavable) disulfide bond. The tissues were then washed prior to or after staining. […] Results were compared to the tissues incubated with a native thiol targeting group (control group).” for “minutes).”
Further studies were conducted on FFPE human brain tissue that were enriched for binding moieties in the tissue via treatment with DTT or with DTT and PEG4-SPDP. FIG. 5 depicts the signal-to-noise ratio increased post-quenching with DTT/Compound 1A and PEG4-SPDP-DTT/Compound 1A, and was maintained after stripping with DMSO treatment and rehybridization of fluorescent probes.

[5] = stripping of fluorescently labeled probes and rehybridization
[6] = PEG4-SPDP-DTT/Compound 1A (FIG. 5)

For COc1cc(/N=N/c2ccc([N+](=O)[O-])cc2)c(OC)cc1/N=N/c1ccc(N(C)CCCN2C(=O)C=CC2=O)cc1 [Compound 1A], the detected object density ([1]; 0.1, 0.5 and 0.8 mM, 488 nm (FIGS. 10A-10C)) was “increase”, the “detected object local signal-to-noise ratio” value ([1]; 0.1, 0.5 and 0.8 mM, 488 nm (FIGS. 11A-11C)) was “Increased” and the “background signal compared to unquenched tonsil tissues” value ([1]; 0.1, 0.5 and 0.8 mM, 488 nm, cycles 5-7 vs 1-3, multiple cycles of stripping and reprobing (FIGS. 9A-9C)) was “Significant reduction”. The “background noise across all four wavelengths measured” value ([1]; 488, 532, 590, 647 nm (data for additional wavelengths not shown)) was “reduced background noise was maintained”, the signal intensity ([1]; 488 nm, after quenching) was “reduced” and the “detected objected signal intensity above local background” value ([1]; quenched tissue, 488 nm, exposure time increased from 10 ms to 30 ms (FIG. 12)) was “significantly improved”. The “staining of the tissues with the targeting chemistry” value ([2]; FrF mouse brain, DTT or PEG4-SPDP/DTT enrichment, compared to native thiol control group) was “efficiently stain”, the background signal ([2]; after stripping with DMSO, treatment with compound 1A and rehybridization with additional probes) was “significantly reduced” and the “background in dentate gyrus (DG) and cortex samples” value ([2]; mouse brain, quenched vs prior to quenching (FIGS. 3A-3D)) was “efficiently reduced”. For the same molecule, the “autofluorescence quenching effect after stripping” value [2, 5] was “retained”, the “background signal compared to unquenched tissues” value (FFPE human brain tissues [3]) was “significant reduction” and the “detected object local mean signal-to-noise ratio” value (FFPE human brain tissues [3]) was “improved”. The “background in human brain tissues” value (FFPE human brain tissues [4]) was “efficiently reduced”, the “signal to background ratio after 5 cycles of stripping and rehybridizing” value (FFPE human brain tissues [4]; 488 nm, 590 nm, 532 nm and 647 nm, single quenching application (FIGS. 6A-6D)) was “maintained” and the “signal-to-noise ratio after stripping with DMSO and rehybridization of fluorescent probes” value (FFPE human brain tissues [4]; DTT/Compound 1A (FIG. 5)) was “maintained”. For the same molecule, the signal-to-noise ratio post-quenching (FFPE human brain tissues [4]; DTT/Compound 1A (FIG. 5)) was “increased”, the “signal-to-noise ratio after stripping with DMSO and rehybridization of fluorescent probes” value (FFPE human brain tissues [4]; [6]) was “maintained” and the signal-to-noise ratio post-quenching (FFPE human brain tissues [4]; [6]) was “increased”. For the same molecule, the “retention of quencher on tissues through multiple detection cycles” value (FFPE human brain tissues [4]; covalently bound, no repeated quenching steps) was “retained” and the “autofluorescence quenching effect after stripping” value (FFPE human brain tissues [4]; [5]) was “retained”.

With COc1cc(/N=N/c2ccc([N+](=O)[O-])cc2)c(OC)cc1/N=N/c1ccc(N(C)CCCC(=O)ON2C(=O)CCC2=O)cc1 [Compound 1B] the “background signal compared to unquenched tissues” value (FFPE human brain tissues [3]) was “significant reduction” and the “detected object local mean signal-to-noise ratio” value (FFPE human brain tissues [3]) was “improved”.

With COc1cc(/N=N/c2c(Cl)cc([N+](=O)[O-])cc2Cl)c(OC)cc1/N=N/c1ccc(N(C)CCCN2C(=O)C=CC2=O)cc1 [Compound 2A] the “background signal compared to unquenched tissues” value (FFPE human brain tissues [3]) was “significant reduction” and the “detected object local mean signal-to-noise ratio” value (FFPE human brain tissues [3]) was “improved”.

CCN(CC)c1ccc2nc3ccc(/N=N/c4ccc(N(C)CCCC(=O)ON5C(=O)CCC5=O)cc4)cc3[n+](-c3ccccc3)c2c1 [Compound 3B] was tested, and the “background signal compared to unquenched tissues” value (FFPE human brain tissues [3]) was “significant reduction”.
